Data published in ChEMBL document CHEMBL1208720, “N-Benzylsalicylthioamides as novel compounds with promising antimycotic activity” (2010).
Values after ≈ are worked out from the molar mass of the structure shown.

Assays:
Format in all cases: functional
Candida albicans [1] = experiment: Antifungal activity against Candida albicans ATCC 44859 after 48 hrs by broth microdilution assay; conditions: Candida albicans, ATCC 44859, 48 h
Pichia kudriavzevii [2] = experiment: Antifungal activity against Candida krusei E28 after 48 hrs by broth microdilution assay; conditions: Pichia kudriavzevii, E28, 48 h
Trichosporon asahii [3] = experiment: Antifungal activity against Trichosporon asahii 1188 after 48 hrs by broth microdilution assay; conditions: Trichosporon asahii, 1188, 48 h
[4] = system: Trichophyton mentagrophytes; experiment: Antifungal activity against Trichophyton mentagrophytes 445 after 120 hrs by broth microdilution assay; conditions: Trichophyton mentagrophytes, 445, 120 h
Aspergillus fumigatus [5] = experiment: Antifungal activity against Aspergillus fumigatus 231 after 24 hrs by broth microdilution assay; conditions: Aspergillus fumigatus, 231, 24 h
Candida tropicalis [6] = experiment: Antifungal activity against Candida tropicalis 159 after 48 hrs by broth microdilution assay; conditions: Candida tropicalis, 159, 48 h
Candida tropicalis [7] = experiment: Antifungal activity against Candida tropicalis 159 after 24 hrs by broth microdilution assay; conditions: Candida tropicalis, 159, 24 h
Nakaseomyces glabratus [8] = experiment: Antifungal activity against Candida glabrata 20/I after 48 hrs by broth microdilution assay; conditions: Nakaseomyces glabratus, 20/I, 48 h
Candida albicans [9] = experiment: Antifungal activity against Candida albicans ATCC 44859 after 24 hrs by broth microdilution assay; conditions: Candida albicans, ATCC 44859, 24 h
Nakaseomyces glabratus [10] = experiment: Antifungal activity against Candida glabrata 20/I after 24 hrs by broth microdilution assay; conditions: Nakaseomyces glabratus, 20/I, 24 h
[11] = system: Trichophyton mentagrophytes; experiment: Antifungal activity against Trichophyton mentagrophytes 445 after 72 hrs by broth microdilution assay; conditions: Trichophyton mentagrophytes, 445, 72 h
Pichia kudriavzevii [12] = experiment: Antifungal activity against Candida krusei E28 after 24 hrs by broth microdilution assay; conditions: Pichia kudriavzevii, E28, 24 h
Trichosporon asahii [13] = experiment: Antifungal activity against Trichosporon asahii 1188 after 24 hrs by broth microdilution assay; conditions: Trichosporon asahii, 1188, 24 h
Lichtheimia corymbifera [14] = experiment: Antifungal activity against Absidia corymbifera 272 after 48 hrs by broth microdilution assay; conditions: Lichtheimia corymbifera, 272, 48 h
Aspergillus fumigatus [15] = experiment: Antifungal activity against Aspergillus fumigatus 231 after 48 hrs by broth microdilution assay; conditions: Aspergillus fumigatus, 231, 48 h
Lichtheimia corymbifera [16] = experiment: Antifungal activity against Absidia corymbifera 272 after 24 hrs by broth microdilution assay; conditions: Lichtheimia corymbifera, 272, 24 h

`Oc1ccccc1C(=S)NCc1ccc(Cl)c(Cl)c1` was tested, and the MIC (Candida albicans [1]) was 31.2 µM (≈ 9.76 µg/mL), the MIC (Pichia kudriavzevii [2]) was 31.2 µM (≈ 9.76 µg/mL) and the MIC (Trichosporon asahii [3]) was 15.6 µM (≈ 4.88 µg/mL). For the same molecule, the MIC [4] was 15.6 µM (≈ 4.88 µg/mL), the MIC (Aspergillus fumigatus [5]) was 15.6 µM (≈ 4.88 µg/mL) and the MIC (Candida tropicalis [6]) was 31.2 µM (≈ 9.76 µg/mL). The MIC (Candida tropicalis [7]) was 31.2 µM (≈ 9.76 µg/mL), the MIC (Nakaseomyces glabratus [8]) was 31.2 µM (≈ 9.76 µg/mL) and the MIC (Candida albicans [9]) was 15.6 µM (≈ 4.88 µg/mL). It also gave an MIC (Nakaseomyces glabratus [10]) of 31.2 µM (≈ 9.76 µg/mL), an MIC [11] of 7.81 µM (≈ 2.44 µg/mL) and an MIC (Pichia kudriavzevii [12]) of 15.6 µM (≈ 4.88 µg/mL). It also gave an MIC (Trichosporon asahii [13]) of 15.6 µM (≈ 4.88 µg/mL), an MIC (Lichtheimia corymbifera [14]) of 15.6 µM (≈ 4.88 µg/mL) and an MIC (Aspergillus fumigatus [15]) of 31.2 µM (≈ 9.76 µg/mL). The MIC (Lichtheimia corymbifera [16]) was 7.81 µM (≈ 2.44 µg/mL).
Work on `Oc1ccc(Br)cc1C(=S)NCc1ccc(Br)cc1` yielded an MIC (Candida albicans [1]) of 31.2 µM (≈ 12.5 µg/mL), an MIC (Pichia kudriavzevii [2]) of 15.6 µM (≈ 6.27 µg/mL) and an MIC (Trichosporon asahii [3]) of 7.81 µM (≈ 3.13 µg/mL). It also gave an MIC [4] of 31.2 µM (≈ 12.5 µg/mL), an MIC (Aspergillus fumigatus [5]) of 15.6 µM (≈ 6.27 µg/mL) and an MIC (Candida tropicalis [6]) of 31.2 µM (≈ 12.5 µg/mL). The MIC (Candida tropicalis [7]) was 31.2 µM (≈ 12.5 µg/mL), the MIC (Nakaseomyces glabratus [8]) was 125 µM (≈ 50.1 µg/mL) and the MIC (Candida albicans [9]) was 15.6 µM (≈ 6.27 µg/mL). It also gave an MIC (Nakaseomyces glabratus [10]) of 31.2 µM (≈ 12.5 µg/mL), an MIC [11] of 15.6 µM (≈ 6.27 µg/mL) and an MIC (Pichia kudriavzevii [12]) of 3.9 µM (≈ 1.56 µg/mL). For the same molecule, the MIC (Trichosporon asahii [13]) was 3.9 µM (≈ 1.56 µg/mL), the MIC (Lichtheimia corymbifera [14]) was 3.9 µM (≈ 1.56 µg/mL) and the MIC (Aspergillus fumigatus [15]) was 15.6 µM (≈ 6.27 µg/mL). It also gave an MIC (Lichtheimia corymbifera [16]) of 3.9 µM (≈ 1.56 µg/mL).
Molecule `Oc1ccc(Cl)cc1C(=S)NCc1ccc(F)cc1` has an MIC (Candida albicans [1]) of 125 µM (≈ 37 µg/mL), an MIC (Pichia kudriavzevii [2]) of 15.6 µM (≈ 4.62 µg/mL) and an MIC (Trichosporon asahii [3]) of 15.6 µM (≈ 4.62 µg/mL). The MIC [4] was 15.6 µM (≈ 4.62 µg/mL), the MIC (Aspergillus fumigatus [5]) was 31.2 µM (≈ 9.24 µg/mL) and the MIC (Candida tropicalis [6]) was 125 µM (≈ 37 µg/mL). The MIC (Candida tropicalis [7]) was 62.5 µM (≈ 18.5 µg/mL), the MIC (Nakaseomyces glabratus [8]) was 125 µM (≈ 37 µg/mL) and the MIC (Candida albicans [9]) was 31.2 µM (≈ 9.24 µg/mL). The MIC (Nakaseomyces glabratus [10]) was 62.5 µM (≈ 18.5 µg/mL), the MIC [11] was 15.6 µM (≈ 4.62 µg/mL) and the MIC (Pichia kudriavzevii [12]) was 7.81 µM (≈ 2.31 µg/mL). The MIC (Trichosporon asahii [13]) was 7.81 µM (≈ 2.31 µg/mL), the MIC (Lichtheimia corymbifera [14]) was 15.6 µM (≈ 4.62 µg/mL) and the MIC (Aspergillus fumigatus [15]) was 15.6 µM (≈ 4.62 µg/mL). The MIC (Lichtheimia corymbifera [16]) was 15.6 µM (≈ 4.62 µg/mL).
In the case of `Oc1ccc(Br)cc1C(=S)NCc1cccc(Br)c1`, the MIC (Candida albicans [1]) is reported as 31.2 µM (≈ 12.5 µg/mL), the MIC (Pichia kudriavzevii [2]) is reported as 7.81 µM (≈ 3.13 µg/mL) and the MIC (Trichosporon asahii [3]) is reported as 31.2 µM (≈ 12.5 µg/mL). For the same molecule, the MIC [4] was 1.95 µM (≈ 0.782 µg/mL), the MIC (Aspergillus fumigatus [5]) was 7.81 µM (≈ 3.13 µg/mL) and the MIC (Candida tropicalis [6]) was 62.5 µM (≈ 25.1 µg/mL). The MIC (Candida tropicalis [7]) was 15.6 µM (≈ 6.27 µg/mL), the MIC (Nakaseomyces glabratus [8]) was 31.2 µM (≈ 12.5 µg/mL) and the MIC (Candida albicans [9]) was 15.6 µM (≈ 6.27 µg/mL). The MIC (Nakaseomyces glabratus [10]) was 7.81 µM (≈ 3.13 µg/mL), the MIC [11] was 1.95 µM (≈ 0.782 µg/mL) and the MIC (Pichia kudriavzevii [12]) was 3.9 µM (≈ 1.56 µg/mL). For the same molecule, the MIC (Trichosporon asahii [13]) was 15.6 µM (≈ 6.27 µg/mL), the MIC (Lichtheimia corymbifera [14]) was 3.9 µM (≈ 1.56 µg/mL) and the MIC (Aspergillus fumigatus [15]) was 15.6 µM (≈ 6.27 µg/mL). For the same molecule, the MIC (Lichtheimia corymbifera [16]) was 3.9 µM (≈ 1.56 µg/mL).
`Oc1ccc(Cl)cc1C(=S)NCc1ccc(Cl)c(Cl)c1` showed an MIC (Candida albicans [1]) of 31.2 µM (≈ 10.8 µg/mL), an MIC (Pichia kudriavzevii [2]) of 15.6 µM (≈ 5.41 µg/mL) and an MIC (Trichosporon asahii [3]) of 7.81 µM (≈ 2.71 µg/mL). It also gave an MIC [4] of 0.98 µM (≈ 0.34 µg/mL), an MIC (Aspergillus fumigatus [5]) of 3.9 µM (≈ 1.35 µg/mL) and an MIC (Candida tropicalis [6]) of 62.5 µM (≈ 21.7 µg/mL). It also gave an MIC (Candida tropicalis [7]) of 31.2 µM (≈ 10.8 µg/mL), an MIC (Nakaseomyces glabratus [8]) of 31.2 µM (≈ 10.8 µg/mL) and an MIC (Candida albicans [9]) of 31.2 µM (≈ 10.8 µg/mL). The MIC (Nakaseomyces glabratus [10]) was 31.2 µM (≈ 10.8 µg/mL), the MIC [11] was 0.98 µM (≈ 0.34 µg/mL) and the MIC (Pichia kudriavzevii [12]) was 3.9 µM (≈ 1.35 µg/mL). For the same molecule, the MIC (Trichosporon asahii [13]) was 3.9 µM (≈ 1.35 µg/mL), the MIC (Lichtheimia corymbifera [14]) was 7.81 µM (≈ 2.71 µg/mL) and the MIC (Aspergillus fumigatus [15]) was 15.6 µM (≈ 5.41 µg/mL). For the same molecule, the MIC (Lichtheimia corymbifera [16]) was 3.9 µM (≈ 1.35 µg/mL).
In the case of `Oc1ccc(Br)cc1C(=S)NCc1ccc(Cl)c(Cl)c1`, the MIC (Candida albicans [1]) is reported as 31.2 µM (≈ 12.2 µg/mL), the MIC (Pichia kudriavzevii [2]) is reported as 15.6 µM (≈ 6.11 µg/mL) and the MIC (Trichosporon asahii [3]) is reported as 7.81 µM (≈ 3.05 µg/mL). The MIC [4] was 0.98 µM (≈ 0.383 µg/mL), the MIC (Aspergillus fumigatus [5]) was 7.81 µM (≈ 3.05 µg/mL) and the MIC (Candida tropicalis [6]) was 31.2 µM (≈ 12.2 µg/mL). The MIC (Candida tropicalis [7]) was 31.2 µM (≈ 12.2 µg/mL), the MIC (Nakaseomyces glabratus [8]) was 62.5 µM (≈ 24.4 µg/mL) and the MIC (Candida albicans [9]) was 15.6 µM (≈ 6.11 µg/mL). It also gave an MIC (Nakaseomyces glabratus [10]) of 31.2 µM (≈ 12.2 µg/mL), an MIC [11] of 0.98 µM (≈ 0.383 µg/mL) and an MIC (Pichia kudriavzevii [12]) of 7.81 µM (≈ 3.05 µg/mL). It also gave an MIC (Trichosporon asahii [13]) of 3.9 µM (≈ 1.53 µg/mL), an MIC (Lichtheimia corymbifera [14]) of 3.9 µM (≈ 1.53 µg/mL) and an MIC (Aspergillus fumigatus [15]) of 7.81 µM (≈ 3.05 µg/mL). It also gave an MIC (Lichtheimia corymbifera [16]) of 3.9 µM (≈ 1.53 µg/mL).
Molecule `Oc1cc(Cl)ccc1C(=S)NCc1ccc(Br)cc1` has an MIC (Candida albicans [1]) of 31.2 µM (≈ 11.1 µg/mL), an MIC (Pichia kudriavzevii [2]) of 15.6 µM (≈ 5.57 µg/mL) and an MIC (Trichosporon asahii [3]) of 7.81 µM (≈ 2.79 µg/mL). For the same molecule, the MIC [4] was 1.95 µM (≈ 0.696 µg/mL), the MIC (Aspergillus fumigatus [5]) was 7.81 µM (≈ 2.79 µg/mL) and the MIC (Candida tropicalis [6]) was 31.2 µM (≈ 11.1 µg/mL). For the same molecule, the MIC (Candida tropicalis [7]) was 31.2 µM (≈ 11.1 µg/mL), the MIC (Nakaseomyces glabratus [8]) was 31.2 µM (≈ 11.1 µg/mL) and the MIC (Candida albicans [9]) was 15.6 µM (≈ 5.57 µg/mL). For the same molecule, the MIC (Nakaseomyces glabratus [10]) was 31.2 µM (≈ 11.1 µg/mL), the MIC [11] was 0.98 µM (≈ 0.35 µg/mL) and the MIC (Pichia kudriavzevii [12]) was 3.9 µM (≈ 1.39 µg/mL). For the same molecule, the MIC (Trichosporon asahii [13]) was 7.81 µM (≈ 2.79 µg/mL), the MIC (Lichtheimia corymbifera [14]) was 1.95 µM (≈ 0.696 µg/mL) and the MIC (Aspergillus fumigatus [15]) was 7.81 µM (≈ 2.79 µg/mL). It also gave an MIC (Lichtheimia corymbifera [16]) of 0.98 µM (≈ 0.35 µg/mL).
`CC(C)(C)c1ccc(CNC(=S)c2ccccc2O)cc1` showed an MIC (Candida albicans [1]) of over 500 µM, an MIC (Pichia kudriavzevii [2]) of over 500 µM and an MIC (Trichosporon asahii [3]) of 250 µM (≈ 74.9 µg/mL). For the same molecule, the MIC [4] was 15.6 µM (≈ 4.68 µg/mL), the MIC (Aspergillus fumigatus [5]) was 250 µM (≈ 74.9 µg/mL) and the MIC (Candida tropicalis [6]) was over 500 µM. For the same molecule, the MIC (Candida tropicalis [7]) was over 500 µM, the MIC (Nakaseomyces glabratus [8]) was over 500 µM and the MIC (Candida albicans [9]) was over 500 µM. The MIC (Nakaseomyces glabratus [10]) was over 500 µM, the MIC [11] was 15.6 µM (≈ 4.68 µg/mL) and the MIC (Pichia kudriavzevii [12]) was over 500 µM. For the same molecule, the MIC (Trichosporon asahii [13]) was 250 µM (≈ 74.9 µg/mL), the MIC (Lichtheimia corymbifera [14]) was 62.5 µM (≈ 18.7 µg/mL) and the MIC (Aspergillus fumigatus [15]) was over 500 µM. For the same molecule, the MIC (Lichtheimia corymbifera [16]) was 15.6 µM (≈ 4.68 µg/mL).
